Assay results: US6525001B1, “Substituted pyrimidine and pyridine herbicides” (Mid-American Commercialization Corporation, priority 1997, dated 2003)

What was measured:
Type in all cases: in vivo
Set-up in all cases: key: 0 is no effect; 10 is complete control
[1] = system: cocklebur (Xanthium strumarium); assay: Test B pre-/postemergence
How it was run: (§1)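 Compounds in a surfactant-containing, non-phytotoxic solvent blend are applied to freshly planted seed (preemergence) and, concurrently, to seedlings of 2 to 18 cm at 1–4 leaves (postemergence). Plants stay in the greenhouse twelve to sixteen days and are then scored visually from 0 (no effect) to 10 (complete control).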

soybean (Glycine max) = assay: Test B pre-/postemergence
How it was run: as §1

[2] = system: wheat (Triticum aestivum); assay: Test B pre-/postemergence
How it was run: as §1

rape (Brassica napus) = assay: Test B pre-/postemergence
How it was run: as §1

[3] = system: crabgrass (Digitaria sanguinalis); assay: Test B pre-/postemergence
How it was run: as §1

[4] = system: purple nutsedge (Cyperus rotundus); assay: Test B pre-/postemergence
How it was run: as §1

[5] = system: sugar beet (Beta vulgaris); assay: Test B pre-/postemergence
How it was run: as §1

[6] = system: pigweed (Amaranthus retroflexus); assay: Test B pre-/postemergence
How it was run: as §1

[7] = system: blackgrass (Alopecurus myosuroides); assay: Test B pre-/postemergence
How it was run: as §1

[8] = system: velvetleaf (Abutilon theophrasti); assay: Test B pre-/postemergence
How it was run: as §1

corn (Zea mays) = assay: Test B pre-/postemergence
How it was run: as §1

rice (Oryza sativa) = assay: Test B flood test; details: for Plant response rating, Rice: Postemergence (flood test species)
How it was run: (§2)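 Read-out is a visual response score from 0 (no effect) to 10 (complete control), assigned by comparison with untreated controls. Treatment was applied at the 2-leaf stage, and plants stayed in the greenhouse for twelve to sixteen days before scoring.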

[9] = system: smallflower flatsedge (Cyperus difformis); assay: Test B flood test; details: for Plant response rating, S. Flatsedge: Postemergence (flood test species)
How it was run: as §2

[10] = system: duck salad (Heteranthera limosa); assay: Test B flood test; details: for Plant response rating, Ducksalad: Postemergence (flood test species)
How it was run: as §2

[11] = system: bamyardgrass (Echinochloa crus-galli); assay: Test B flood test; details: for Plant response rating, Barnyardgrass: Postemergence (flood test species)
How it was run: as §2

[12] = Preemergence, Rate 62 g/ha, scale of 0 to 10
[13] = Rate 62 g/ha, Postemergence (flood test)
[14] = Rate 125 g/ha, Postemergence section (flood test species)

Structure (SMILES): Cc1cnc(-n2cnc(C(F)(F)F)c2)nc1C(=O)c1cccc(OC(F)(F)F)c1 [Compound 63]
- Plant response rating, Cocklebur [1, 12]: 1
- Cocklebur plant response rating ([1]; Rate 62 g/ha, Postemergence): 1
- Cocklebur plant response rating ([1]; Rate 125 g/ha, Postemergence): 3
- Plant response rating, Cocklebur ([1]; Rate 500 g/ha, Postemergence): 8
- Plant response rating, Cocklebur ([1]; Rate 500 g/ha, Preemergence): 1
- Plant response rating, Soybean (soybean (Glycine max); [12]): 0
- Soybean plant response rating (soybean (Glycine max); Rate 62 g/ha, Postemergence): 0
- Soybean plant response rating (soybean (Glycine max); Rate 125 g/ha, Postemergence): 2
- Plant response rating, Soybean (soybean (Glycine max); Rate 125 g/ha, Preemergence): 0
- Plant response rating, Soybean (soybean (Glycine max); Rate 250 g/ha, Postemergence): 2
- Plant response rating, Soybean (soybean (Glycine max); Rate 250 g/ha, Preemergence): 0
- Plant response rating, Soybean (soybean (Glycine max); Rate 500 g/ha, Postemergence): 2
- Plant response rating, Soybean (soybean (Glycine max); Rate 500 g/ha, Preemergence): 0
- Plant response rating, Wheat [2, 12]: 2
- Wheat plant response rating ([2]; Rate 62 g/ha, Postemergence): 2
- Wheat plant response rating ([2]; Rate 125 g/ha, Postemergence): 2
- Plant response rating, Wheat ([2]; Rate 125 g/ha, Preemergence): 2
- Plant response rating, Wheat ([2]; Rate 250 g/ha, Postemergence): 2
- Plant response rating, Wheat ([2]; Rate 250 g/ha, Preemergence): 3
- Plant response rating, Wheat ([2]; Rate 500 g/ha, Postemergence): 2
- Plant response rating, Wheat ([2]; Rate 500 g/ha, Preemergence): 4
- Plant response rating, Rape (rape (Brassica napus); [12]): 3
- Rape plant response rating (rape (Brassica napus); Rate 62 g/ha, Postemergence): 3
- Rape plant response rating (rape (Brassica napus); Rate 125 g/ha, Postemergence): 4
- Plant response rating, Rape (rape (Brassica napus); Rate 125 g/ha, Preemergence): 3
- Plant response rating, Rape (rape (Brassica napus); Rate 250 g/ha, Postemergence): 8
- Plant response rating, Rape (rape (Brassica napus); Rate 250 g/ha, Preemergence): 4
- Plant response rating, Rape (rape (Brassica napus); Rate 500 g/ha, Postemergence): 8
- Plant response rating, Rape (rape (Brassica napus); Rate 500 g/ha, Preemergence): 8
- Plant response rating, Crabgrass [3, 12]: 3
- Crabgrass plant response rating ([3]; Rate 62 g/ha, Postemergence): 3
- Crabgrass plant response rating ([3]; Rate 125 g/ha, Postemergence): 3
- Plant response rating, Crabgrass ([3]; Rate 125 g/ha, Preemergence): 6
- Plant response rating, Crabgrass ([3]; Rate 250 g/ha, Postemergence): 4
- Plant response rating, Crabgrass ([3]; Rate 250 g/ha, Preemergence): 8
- Plant response rating, Crabgrass ([3]; Rate 500 g/ha, Postemergence): 6
- Plant response rating, Crabgrass ([3]; Rate 500 g/ha, Preemergence): 9
- Plant response rating, Nutsedge [4, 12]: 0
- Nutsedge plant response rating ([4]; Rate 62 g/ha, Postemergence): 0
- Plant response rating, Nutsedge ([4]; Rate 125 g/ha, Preemergence): 0
- Plant response rating, Nutsedge ([4]; Rate 250 g/ha, Postemergence): 0
- Plant response rating, Nutsedge ([4]; Rate 500 g/ha, Preemergence): 0
- Plant response rating, Sugarbeets [5, 12]: 10
- Sugarbeets plant response rating ([5]; Rate 62 g/ha, Postemergence): 10
- Sugarbeets plant response rating ([5]; Rate 125 g/ha, Postemergence): 9
- Plant response rating, Sugarbeets ([5]; Rate 125 g/ha, Preemergence): 10
- Plant response rating, Sugarbeets ([5]; Rate 250 g/ha, Postemergence): 9
- Plant response rating, Sugarbeets ([5]; Rate 250 g/ha, Preemergence): 10
- Plant response rating, Sugarbeets ([5]; Rate 500 g/ha, Postemergence): 9
- Plant response rating, Sugarbeets ([5]; Rate 500 g/ha, Preemergence): 10
- Plant response rating, Redroot pigweed [6, 12]: 8
- Redroot pigweed plant response rating ([6]; Rate 62 g/ha, Postemergence): 8
- Redroot pigweed plant response rating ([6]; Rate 125 g/ha, Postemergence): 9
- Plant response rating, Redroot pigweed ([6]; Rate 125 g/ha, Preemergence): 9
- Plant response rating, Redroot pigweed ([6]; Rate 250 g/ha, Postemergence): 9
- Plant response rating, Redroot pigweed ([6]; Rate 250 g/ha, Preemergence): 10
- Plant response rating, Redroot pigweed ([6]; Rate 500 g/ha, Postemergence): 9
- Plant response rating, Redroot pigweed ([6]; Rate 500 g/ha, Preemergence): 10
- Plant response rating, Blackgrass [7, 12]: 2
- Blackgrass plant response rating ([7]; Rate 62 g/ha, Postemergence): 2
- Blackgrass plant response rating ([7]; Rate 125 g/ha, Postemergence): 3
- Plant response rating, Blackgrass ([7]; Rate 125 g/ha, Preemergence): 3
- Plant response rating, Blackgrass ([7]; Rate 250 g/ha, Postemergence): 3
- Plant response rating, Blackgrass ([7]; Rate 250 g/ha, Preemergence): 8
- Plant response rating, Blackgrass ([7]; Rate 500 g/ha, Postemergence): 6
- Plant response rating, Blackgrass ([7]; Rate 500 g/ha, Preemergence): 9
- Plant response rating, Velvetleaf [8, 12]: 2
- Velvetleaf plant response rating ([8]; Rate 62 g/ha, Postemergence): 2
- Velvetleaf plant response rating ([8]; Rate 125 g/ha, Postemergence): 8
- Plant response rating, Velvetleaf ([8]; Rate 125 g/ha, Preemergence): 2
- Plant response rating, Velvetleaf ([8]; Rate 250 g/ha, Postemergence): 8
- Plant response rating, Velvetleaf ([8]; Rate 250 g/ha, Preemergence): 10
- Plant response rating, Velvetleaf ([8]; Rate 500 g/ha, Postemergence): 8
- Plant response rating, Velvetleaf ([8]; Rate 500 g/ha, Preemergence): 10
- Plant response rating, Corn (corn (Zea mays); [12]): 0
- Corn plant response rating (corn (Zea mays); Rate 62 g/ha, Postemergence): 0
- Corn plant response rating (corn (Zea mays); Rate 125 g/ha, Postemergence): 2
- Plant response rating, Corn (corn (Zea mays); Rate 125 g/ha, Preemergence): 1
- Plant response rating, Corn (corn (Zea mays); Rate 250 g/ha, Postemergence): 2
- Plant response rating, Corn (corn (Zea mays); Rate 250 g/ha, Preemergence): 1
- Plant response rating, Corn (corn (Zea mays); Rate 500 g/ha, Postemergence): 2
- Plant response rating, Corn (corn (Zea mays); Rate 500 g/ha, Preemergence): 2
- Rice plant response rating (rice (Oryza sativa); [13]): 0
- Rice plant response rating (rice (Oryza sativa); [14]): 0
- Plant response rating, Rice (rice (Oryza sativa); Rate 250 g/ha): 1
- Plant response rating, Rice (rice (Oryza sativa); Rate 500 g/ha): 1
- S. Flatsedge plant response rating [9, 13]: 4
- S. Flatsedge plant response rating [9, 14]: 7
- Plant response rating, S. Flatsedge ([9]; Rate 250 g/ha): 8
- Plant response rating, S. Flatsedge ([9]; Rate 500 g/ha): 9
- Ducksalad plant response rating [10, 13]: 0
- Ducksalad plant response rating [10, 14]: 0
- Plant response rating, Ducksalad ([10]; Rate 250 g/ha): 2
- Plant response rating, Ducksalad ([10]; Rate 500 g/ha): 6
- Barnyardgrass plant response rating [11, 13]: 1
- Barnyardgrass plant response rating [11, 14]: 3
- Plant response rating, Barnyardgrass ([11]; Rate 250 g/ha): 3
- Plant response rating, Barnyardgrass ([11]; Rate 500 g/ha): 3
